Read-outs that look alike come from different tables or passages of the source. No end group written: not given here.
Key:
[1] = test system: A. flavus; format: cell-based, Aspergillus flavus (KCTC 6905); details: 36 h
Description: (§1) Aspergillus flavus (KCTC 6905), A. fumigatus (KCTC 6145), Fusarium moniliforme (KCTC 6149), F. oxysporum (KCTC 16909), C. albicans (KCTC 7270), C. krusei (CCARM 14017), C. parapsilosis (CCARM 14016), C. tropicalis (KCTC 7221), and T. beigelii (KCTC 7707) were obtained from the Korea Collection for Type Cultures (KCTC) and Culture Collection of Antimicrobial Resistant Microbes (CCARM). Mold and yeast fungi were pre-grown on potato dextrose (PD) and yeast extract peptone dextrose (YPD) agars, respectively.
(§2) Antifungal activity of peptides was performed by microtiter plate assays. Fungal conidia from four-day-old molds were collected using 0.08% Triton X-100 (v/v), and pre-cultivated yeast cells were adjusted to 2 × 10^4 spores/mL in 10 mM sodium phosphate buffer (SP, pH 7.2) or 10 mM 2-(N-morpholino)ethanesulfonic acid (MES) buffer (pH 5.5) supplemented with 20% culture medium, followed by addition to peptide solutions (0.25, 0.5, 1, 1.5, 2, 4, 6, 8, 12, 16, 32, 48, and 64 µM) in 96-well microtiter plates. After incubation for 36 h at 28 °C, the hyphal growth of conidia and the proliferation of yeast cells were observed under a light microscope. All assays were performed in triplicate. The MIC values were defined as the lowest concentration of samples that reduced fungal germination (for mold) or cell proliferation (for yeast) by more than 90% [34].

[2] = test system: A. fumigatus; format: cell-based, A. fumigatus (KCTC 6145); details: 36 h
Description: as §1, §2

[3] = test system: F. moniliforme; format: cell-based, Fusarium moniliforme (KCTC 6149); details: 36 h
Description: as §1, §2

[4] = test system: F. oxysporum; format: cell-based, F. oxysporum (KCTC 16909); details: 36 h
Description: as §1, §2

[5] = test system: C. krusei; format: cell-based, C. krusei (CCARM 14017); details: 36 h
Description: as §1, §2

[6] = test system: C. parapsilosis; format: cell-based, C. parapsilosis (CCARM 14016); details: 36 h
Description: as §1, §2

[7] = test system: T. beigelii; format: cell-based, T. beigelii (KCTC 7707); details: 36 h
Description: as §1, §2

[8] = Calcein leakage from fungus-mimic artificial vesicles; details: fungus-mimic PC/PE/PI/ergosterol vesicles, 20 μM lipid; peptide/lipid molar ratio 0.05; 100% = 0.03% Triton X-100; three independent experiments
Procedure: (§3) The permeability of peptides in calcein-entrapped artificial liposomes was assayed by measuring calcein leakage. The desired mixtures of lipids (PC/PE/PI/ergosterol, 5:4:1:2 and PC/CH/SM, 2:1:1, weight ratio) were dissolved in chloroform at 10 mg/mL, dried in a glass tube under nitrogen, and then lyophilized overnight to remove residual solvent. The dried lipid films were resuspended in 1 mL of dye solution (80 mM calcein, 10 mM HEPES buffer, pH 7.2) at 50 °C and vortexed, followed by freeze-thawing for nine cycles and extrusion with polycarbonate filters (0.2-μm pore-size) using an Avanti Mini-Extruder (Avanti Polar Lipids Inc., Alabaster, AL, USA). Free calcein was removed using PD-10 desalting columns (GE Healthcare Life Science, Seoul, Korea). Calcein-entrapped vesicles of 20 μM lipids were incubated with peptides at concentrations of […], 0.02, 0.05, and 0.1 molar ratio (peptide/lipid) and the fluorescence was assessed at 480 (Ex) and 520 (Em) nm using a microtiter SpectraMax M5 reader (Molecular Devices). Complete (100%) release was achieved by the addition of 0.03% Triton X-100 (v/v).

[9] = Calcein leakage from mammalian-mimic artificial vesicles; details: mammalian-mimic PC/CH/SM vesicles, 20 μM lipid; peptide/lipid molar ratio 0.1; 100% = 0.03% Triton X-100
Procedure: as §3

[10] = test system: C. tropicalis; assay: C. tropicalis skin infection mouse model; format: in vivo, BALB/C female mice
Procedure: All animal experiments and procedures were performed with the approval of the Institutional Animal Care and Use Committee (IACUC) of Sunchon National University, Korea (SCNU IACUC-2019-10). BALB/C female mice (six weeks old) were obtained from Koatech Co. (Pyongtaek, Gyeonggido, Korea) and divided into three groups (n = 4): control, pseudin-2, and P2-LZ4 groups. The skin on the back of each mouse was shaved 1 h before infection, and the mice were anesthetized by inhalation of 5% (induction) and 2% (maintenance) isoflurane in pure oxygen. Mice were then subjected to subcutaneous infection with 100 µL C. tropicalis (10^7 cells/mL) by injection into the dorsum of each mouse. At 24 h after infection, 100 µL PBS, pseudin-2 (0.1 mg/mL), or P2-LZ4 (0.1 mg/mL) was injected into the same site. At four days after peptide injection, mice were euthanized by CO2 inhalation, and the infected skin tissues were excised, fixed in 4% paraformaldehyde, embedded in paraffin, stained with H&E, and observed by light microscopy.

[11] = test system: C. tropicalis cells; assay: SYTOX Green uptake (membrane permeability); format: cell-based; details: SP buffer pH 7.2, 0.5 μM SYTOX Green, peptides 1-64 µM, monitored 30 min
Procedure: C. tropicalis cells pre-grown at 28 °C were washed and suspended (2 × 10^6 cells/mL) in SP buffer (pH 7.2). The cells were pre-incubated with SYTOX Green (final concentration of 0.5 μM) for 15 min in the dark, followed by adding two-fold serial dilutions of peptides at concentrations of 1 to 64 µM. The fluorescence intensity was monitored for 30 min at 485 (Ex) and 520 (Em) nm using a microtiter SpectraMax M5 reader (Molecular Devices, San Jose, CA, USA).

[12] = test system: C. tropicalis cells; assay: Mitochondrial superoxide, MitoSOX Red flow cytometry; format: cell-based; details: peptide at MIC for 8 h
Procedure: Mitochondrial SOX was measured using MitoSOX Red probe. C. tropicalis cells (2 × 10^4 spores/mL) were treated with samples at the appropriate MIC for 8 h and then stained with MitoSOX Red according to the manufacturer’s instructions. The stained cells were acquired by flow cytometry (Attune NxT Acoustic Focusing Cytometer; ThermoFisher Scientific Co., Eugene, OR, USA) at 561 nm by 10,000 total events.

**Q.** With “GLNALKKVFQGIHEAIKLINNHVQ-NH2 [Pseudin-2]” as the substance, how does the MIC ([1]; pH 5.5) read?
**A.** 16 µM

**Q.** What about the MIC ([1]; pH 7.2) of the same substance?
**A.** 64 µM

**Q.** What about the MIC ([2]; pH 5.5) of the same substance?
**A.** 24 µM

**Q.** And the MIC ([2]; pH 7.2)?
**A.** 64 µM

**Q.** What about the MIC ([3]; pH 5.5) of the same substance?
**A.** 64 µM

**Q.** And the MIC ([3]; pH 7.2)?
**A.** 32 µM

**Q.** What about the MIC ([4]; pH 5.5) of the same substance?
**A.** 16 µM

**Q.** And the MIC ([4]; pH 7.2)?
**A.** 4 µM

**Q.** What about the MIC ([5]; pH 5.5) of the same substance?
**A.** 8 (8) µM

**Q.** And the MIC ([5]; pH 7.2)?
**A.** 8 (8) µM

**Q.** What about the MIC ([6]; pH 5.5) of the same substance?
**A.** >64 (>64) µM

**Q.** And the MIC ([6]; pH 7.2)?
**A.** >64 (>64) µM

**Q.** What about the MIC ([7]; pH 5.5) of the same substance?
**A.** 2 (2) µM

**Q.** And the MIC ([7]; pH 7.2)?
**A.** 2 (2) µM

**Q.** What about the leakage of calcein [8] of the same substance?
**A.** 80.1%

**Q.** And the calcein efflux [9]?
**A.** significant dye leakage

**Q.** And the “histological evaluation of skin tissues (H&E)” value ([10]; 100 µL of 0.1 mg/mL peptide s.c. 24 h after infection, tissues taken four days after peptide injection)?
**A.** able to recover from histological lesions

**Q.** And the “skin lesions (swelling and redness in the dorsal skin)” value ([10]; 100 µL of 0.1 mg/mL peptide s.c. 24 h after s.c. infection, monitored seven days, n = 4)?
**A.** reduced swelling and redness

**Q.** And the “SYTOX Green fluorescence intensity” value [11]?
**A.** gradual, concentration-dependent increases in fluorescence intensity

**Q.** What about the “MitoSOX Red fluorescence (mitochondrial SOX)” value [12] of the same substance?
**A.** a little right shift

— publication PMC7766124, “Improved Cell Selectivity of Pseudin-2 via Substitution in the Leucine-Zipper Motif: In Vitro and In Vivo Antifungal Activity” (Antibiotics, 2020)
